In patent US9315535B2, “Nucleoside and nucleotide having nitrogen-containing heterocycle structure” (SHIONOGI & CO., LTD., priority 2013, dated 2016):

How the values were obtained:
[1] = tested on: RNA complementary strand (sense strand 3′-CGC AAA AAA CGA-5′); assay: Melting temperature (Tm) of oligonucleotide hybridized to the RNA complementary strand; assay type: binding
Procedure: (§1) Nitrogen stream was passed through the cell chamber of the spectrophotometer (SHIMADZU UV-1800) to prevent dew condensation, and the sample solution was gradually cooled to 5° C. and kept at 5° C. for 15 minutes before starting the measurements. The temperature was raised to 90° C. at the rate of 0.5° C./min while ultraviolet absorption spectra were measured at 260 nm at intervals of 0.5° C. Lidded cells were used to prevent concentration change due to rising temperature.
(§2) The method for determining the Tm values was a method similar to (1).
as §2

[2] = tested on: DNA complementary strand (sense strand 3′-CGC AAA AAA CGA-5′); assay: Melting temperature (Tm) of oligonucleotide hybridized to the DNA complementary strand; assay type: binding
Procedure: as §1, §2, §2

[3] = Table 10, X = II-1 (compound I-1), 100 mM NaCl, 10 mM sodium phosphate buffer (pH 7.2), 4.0 μM each strand
[4] = Table 11, Xp = II-2 (compound IV-1), method similar to (1)
[5] = Table 12, nucleoside structure of compound VII-1 (II-3), method similar to (1)

Question: How did the “Tm, RNA complementary strand” value [1, 3] turn out when “5′-d(GCG TTT TTT GCT)-3′ (DNA GCGTTTTTTGCT; DNA, backbone not given here) [oligonucleotide (0), nucleoside moieties of the oligonucleotide are unmodified, used as a control, reference compound]” was run?
Answer: 49.3 °C

Question: What about the “Tm, RNA complementary strand” value [1, 4] of the same substance?
Answer: 49.3 °C

Question: And the “Tm, RNA complementary strand” value [1, 5]?
Answer: 49.7 °C

Question: What about the “Tm, DNA complementary strand” value [2, 3] of the same substance?
Answer: 53.1 °C

Question: What about the “Tm, DNA complementary strand” value [2, 4] of the same substance?
Answer: 53.1 °C

Question: What about the “Tm, DNA complementary strand” value [2, 5] of the same substance?
Answer: 54.0 °C
